The source of these data is US8329730B2, “Compounds” (Glaxo Group Limited, priority 2008, dated 2012).

Structures can show the parent of a compound that is named as a salt.

T2 sequence (Q99500 whole entry): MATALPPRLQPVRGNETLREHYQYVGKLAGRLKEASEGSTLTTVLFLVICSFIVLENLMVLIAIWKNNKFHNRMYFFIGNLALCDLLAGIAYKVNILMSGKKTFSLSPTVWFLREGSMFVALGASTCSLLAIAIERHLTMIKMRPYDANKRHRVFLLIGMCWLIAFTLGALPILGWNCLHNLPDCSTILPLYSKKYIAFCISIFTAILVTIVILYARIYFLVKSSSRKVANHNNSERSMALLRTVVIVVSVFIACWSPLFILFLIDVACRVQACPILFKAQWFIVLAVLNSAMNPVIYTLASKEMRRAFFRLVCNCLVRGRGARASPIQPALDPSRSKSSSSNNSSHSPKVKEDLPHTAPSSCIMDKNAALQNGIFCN

The target of one assay is T1, human S1P1 receptor (Homo sapiens, UniProt P21453).
T1 construct: expressed in transfected cells; membranes
T1 sequence (P21453 whole entry): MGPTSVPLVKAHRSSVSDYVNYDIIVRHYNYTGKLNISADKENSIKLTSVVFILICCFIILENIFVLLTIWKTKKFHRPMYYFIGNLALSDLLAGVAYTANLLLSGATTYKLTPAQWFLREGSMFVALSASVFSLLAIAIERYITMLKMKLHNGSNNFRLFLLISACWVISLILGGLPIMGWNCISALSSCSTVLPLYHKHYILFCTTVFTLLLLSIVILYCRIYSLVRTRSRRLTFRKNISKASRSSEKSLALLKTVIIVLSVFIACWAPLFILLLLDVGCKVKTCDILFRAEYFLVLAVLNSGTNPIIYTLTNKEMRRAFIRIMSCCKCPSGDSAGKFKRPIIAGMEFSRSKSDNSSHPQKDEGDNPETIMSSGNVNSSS
Put plainly: S1P1 GTPγS binding assay (and alternative method). In kind it is biochemical. As to conditions: in one of the above S1P1 GTPγS binding assays (first or alternative method, RH7777 membranes). As for the experimental part: For membrane preparations all steps were performed at 4° C. Rat hepatoma cells stably expressing the human S1P1 receptor or Rat Basophilic Leukaemia cells (RBL) stably expressing human S1P3 receptor were grown to 80% confluency before being harvested into 10 ml Phospho-Buffered Saline (PBS) and centrifuged at 1200 rpm […]. After removal of the supernatant, the pellet was re-suspended and cells were homogenised within a glass Waring blender for 2 bursts of 15 secs in 200 mls of buffer (50 mM HEPES, 1 mM leupeptin, 25 μg/ml bacitracin, 1 mM EDTA, 1 mM PMSF, 2 μM pepstatin A). The blender was plunged into ice for 5 mins after the first burst and 10-40 mins after the final burst to allow foam to dissipate. The material was then spun at 500 g for 20 mins and the supernatant spun for 36 mins at 48,000 g. The pellet was resuspended in the same buffer as above but without PMSF and pepstatin A. The material was then forced through a 0.6 mm needle, made up to the required volume, (usually ×4 the volume of the original cell pellet), aliquoted and stored frozen at −80° C. Human S1P1 rat hepatoma membranes (1.5 μg/well) were adhered to a wheatgerm agglutinin (WGA)-coated scintillation proximity assay (SPA) beads (0.125 mg/well) in assay buffer (HEPES 20 mM, MgCl2 10 mM, NaCl 100 mM and pH adjusted to 7.4 using KOH 5M, GDP 10 μM FAC (final assay concentration) and saponin 90 μg/ml FAC was also added). After 30 minutes pre-coupling on ice the bead and membrane suspension was dispensed into a white Greiner polypropylene LV384-well plate (5 μl/well), containing 0.1 μl of the compound. 5 μl/well [^35S]-GTPγS (0.5 nM final radioligand conc) made up in assay buffer was then added to agonist plates. The final assay cocktail […] was then centrifuged at 1000 rpm for 5 minutes then read immediately on a Viewlux reader. All test compounds were dissolved in DMSO at a concentration of 10 mM and were prepared in 100% DMSO using a 1 in 4 dilution step to provide 11 point dose response curves. The dilutions were transferred to the assay plates ensuring that the DMSO concentration was constant across the plate for all assays. All data was normalized to the mean of 16 high and 16 low control wells on each plate. A four parameter curve fit was then applied. S1P1 expressing RH7777 membranes (1.5 μg/well) […] were homogenised by passing through a 23G needle. These were then adhered to WGA-coated SPA beads (0.125 mg/well) in assay buffer (HEPES 20 mM, MgCl2 10 mM, NaCl 100 mM and pH adjusted to 7.4 using KOH 5M). GDP 10 μM FAC and saponin 90 μg/ml FAC were also added After 30 minutes precoupling on ice, the bead and membrane suspension was dispensed into white Greiner polypropylene LV 384-well plates (5 μl/well), containing 0.1 μl of compound. 5 μl/well [^35S]-GTPγS (0.5 nM for S1P1 or 0.3 nM for S1P3 final radioligand concentration) made in assay buffer was then added to the plates. The final assay cocktail (10.1 μl) was then sealed, spun on a centrifuge, then read immediately on a Viewlux instrument.
Compound `CC(C)Oc1ncc(-c2nc(-c3cccc4c(CCCC(=O)O)nccc34)no2)cc1Cl` [Example 30, 4-[5-(5-{5-Chloro-6-[(1-methylethyl)oxy]-3-pyridinyl}-1,2,4-oxadiazol-3-yl)-1-isoquinolinyl]butanoic acid] had an EC50 of at most 10 nM.

Regarding `CC(C)Oc1ccc(-c2nc(-c3cccc4c(CCC(=O)O)nccc34)no2)cc1C#N` [Example 26, 3-[5-(5-{3-Cyano-4-[(1-methylethyl)oxy]phenyl}-1,2,4-oxadiazol-3-yl)-1-isoquinolinyl]propanoic acid hydrochloride], the EC50 was at most 10 nM.

With `O=C(O)CCc1nccc2c(-c3noc(-c4ccc(OCC(F)(F)F)c(Cl)c4)n3)cccc12` [Example 24, 3-[5-(5-{3-Chloro-4-[(2,2,2-trifluoroethyl)oxy]phenyl}-1,2,4-oxadiazol-3-yl)-1-isoquinolinyl]propanoic acid hydrochloride], the EC50 is at most 10 nM.

Take `CC(C)Oc1ccc(-c2nc(-c3cccc4c(N5CCC(C(=O)O)CC5)nccc34)no2)cc1Cl` [Example 4, 1-[5-(5-{3-Chloro-4-[(1-methylethyl)oxy]phenyl}-1,2,4-oxadiazol-3-yl)-1-isoquinolinyl]-4-piperidinecarboxylic acid lithium salt]: the EC50 was at most 10 nM.

Consider `CC(C)Oc1ccc(-c2nc(-c3cccc4c(CCC(=O)O)nccc34)no2)cc1Cl` [Example 1, 3-[5-(5-{3-Chloro-4-[(1-methylethyl)oxy]phenyl}-1,2,4-oxadiazol-3-yl)-1-isoquinolinyl]propanoic acid lithium salt], for which the EC50 was at most 10 nM.

The compound `CC(C)Oc1ncc(-c2nc(-c3cccc4c(CCC(=O)O)nccc34)no2)cc1Cl` [Example 27, 3-[5-(5-{5-Chloro-6-[(1-methylethyl)oxy]-3-pyridinyl}-1,2,4-oxadiazol-3-yl)-1-isoquinolinyl]propanoic acid] showed an EC50 of at most 10 nM.

Another assay concerns the target T2, human S1P3 receptor (Homo sapiens, UniProt Q99500).
T2 construct: expressed in transfected cells; membranes
The assay can be described thus: S1P3 GTPγS binding assay (and alternative method). As to conditions: in one of the above S1P3 GTPγS binding assays (first or alternative method, RBL membranes). The class given is biochemical. The protocol: For membrane preparations all steps were performed at 4° C. Rat hepatoma cells stably expressing the human S1P1 receptor or Rat Basophilic Leukaemia cells (RBL) stably expressing human S1P3 receptor were grown to 80% confluency before being harvested into 10 ml Phospho-Buffered Saline (PBS) and centrifuged at 1200 rpm […]. After removal of the supernatant, the pellet was re-suspended and cells were homogenised within a glass Waring blender for 2 bursts of 15 secs in 200 mls of buffer (50 mM HEPES, 1 mM leupeptin, 25 μg/ml bacitracin, 1 mM EDTA, 1 mM PMSF, 2 μM pepstatin A). The blender was plunged into ice for 5 mins after the first burst and 10-40 mins after the final burst to allow foam to dissipate. The material was then spun at 500 g for 20 mins and the supernatant spun for 36 mins at 48,000 g. The pellet was resuspended in the same buffer as above but without PMSF and pepstatin A. The material was then forced through a 0.6 mm needle, made up to the required volume, (usually ×4 the volume of the original cell pellet), aliquoted and stored frozen at −80° C. […] The final assay cocktail (10.1 μl) was centrifuged at 1000 rpm for 5 minutes then read immediately on a Viewlux reader. […] The final assay cocktail (10.1 μl) was then sealed, spun on a centrifuge, then read immediately on a Viewlux instrument.
For orientation: GTPγS is a poorly hydrolysed GTP analogue; its binding reports G protein activation.
As to `CC(C)Oc1ccc(-c2nc(-c3cccc4c(N5CCC(C(=O)O)CC5)nccc34)no2)cc1Cl` [Example 4, 1-[5-(5-{3-Chloro-4-[(1-methylethyl)oxy]phenyl}-1,2,4-oxadiazol-3-yl)-1-isoquinolinyl]-4-piperidinecarboxylic acid lithium salt], the EC50 is 3.16 µM.

As usually defined, the EC50 is the concentration giving half of the maximal effect.
